Earlier results as cited in US20060099233A1, “Granular formulation of neem seed extract and its process thereof” (E.I.D. Parry (India) Limited, priority 2004, published 2006).
Where two headings read alike, the source gives them in different places.

Conditions: 25 days at 29±1° C.

What does the source list for `C/C=C(\C)C(=O)O[C@H]1C[C@@H](OC(C)=O)[C@@]2(C(=O)OC)CO[C@H]3[C@@H](O)[C@@](C)([C@]45O[C@@]4(C)[C@@H]4C[C@H]5O[C@@H]5OC=C[C@@]54O)[C@H]4[C@]1(CO[C@]4(O)C(=O)OC)[C@@H]32` [azadirachtin A]?
degradation of azadirachtin A (in ethanol and water): about 85%; degradation of azadirachtin A (in methanol and acetone): 50%; degradation of azadirachtin A (in methylene chloride, carbon tetrachloride and chloroform): 75-80%
